In ChEMBL document CHEMBL6134911, “Broad Target Screening Reveals Abundance of FKBP12-Based Molecular Glues in Focused Libraries” (J Med Chem, 2025):
Blank lines part the entries; values can stand above or below the compound they belong to. Activity calls are given as the source filed them. The rule behind the calls is not given here.

How the values were obtained:
[1] = Competitive molecular glue activity at fluorescein maleimide-labeled FKBP12 C22V/E108C mutant (unknown origin)/6 His-tagged BRD4 BD2 domain (unknown origin) assessed as ternary complex formation by measuring dissociation constant incubated for 30 mins by fluorescence polarization analysis; set-up: species or system Homo sapiens
[2] = organism: Homo sapiens; assay: Competitive molecular glue activity at Strep-tagged EGFP-FKBP12 (unknown origin) extracted from Escherichia coli BL21 gold cells/6 His-tagged PTPRN (unknown origin) assessed as ternary complex formation incubated for 30 mins by HTRF assay
[3] = organism: Homo sapiens; assay: Competitive molecular glue activity at fluorescein maleimide-labeled FKBP12 C22V/E108C mutant (unknown origin)/6 His-tagged PTPRN (unknown origin) assessed as ternary complex formation incubated for 30 mins by fluorescence polarization analysis
[4] = organism: Homo sapiens; assay: Competitive molecular glue activity at fluorescein maleimide-labeled FKBP12 C22V/E108C mutant (unknown origin)/6 His-tagged PTPRN (unknown origin) assessed as ternary complex formation incubated for 30 mins in presence of FKBP12 ligand 18(S)-Me 29 by fluorescence polarization analysis
[5] = organism: Homo sapiens; assay: Competitive molecular glue activity at fluorescein maleimide-labeled FKBP12 C22V/E108C mutant (unknown origin)/6 His-tagged BRD4 BD2 domain (unknown origin) assessed as ternary complex formation incubated for 30 mins by fluorescence polarization analysis
[6] = organism: Homo sapiens; assay: Competitive molecular glue activity at fluorescein maleimide-labeled FKBP12 C22V/E108C mutant (unknown origin)/6 His-tagged BRD4 BD2 domain (unknown origin) assessed as ternary complex formation incubated for 30 mins in presence of FKBP12 ligand 18(S)-Me 29 by fluorescence polarization analysis
[7] = organism: Homo sapiens; assay: Competitive molecular glue activity at Strep-tagged EGFP-FKBP12 (unknown origin) extracted from Escherichia coli BL21 gold cells/6 His-tagged BRD4 BD2 domain (unknown origin) assessed as ternary complex formation incubated for 30 mins by HTRF assay
[8] = organism: Homo sapiens; assay: Competitive molecular glue activity at fluorescein maleimide-labeled FKBP12 C22V/E108C mutant (unknown origin)/6 His-tagged MBP-STAT4 (unknown origin) assessed as ternary complex formation incubated for 30 mins by fluorescence polarization analysis
[9] = organism: Homo sapiens; assay: Competitive molecular glue activity at Strep-tagged EGFP-FKBP12 (unknown origin) extracted from Escherichia coli BL21 gold cells/6 His-tagged MBP-STAT4 (unknown origin) assessed as ternary complex formation incubated for 30 mins by HTRF assay
[10] = organism: Homo sapiens; assay: Competitive molecular glue activity at fluorescein maleimide-labeled FKBP12 C22V/E108C mutant (unknown origin)/6 His-tagged MBP-STAT4 (unknown origin) assessed as ternary complex formation incubated for 30 mins in presence of FKBP12 ligand 18(S)-Me 29 by fluorescence polarization analysis
[11] = target: Bromodomain-containing protein 4 (Homo sapiens) (UniProt O60885); assay: Displacement of fluorescent JQ1 from BRD4 BD2 (unknown origin) incubated for 30 mins by fluorescence polarization analysis
[12] = organism: Homo sapiens; assay: Competitive molecular glue activity at fluorescein maleimide-labeled FKBP12 C22V/E108C mutant (unknown origin)/6 His-tagged BRD4 BD1 domain (unknown origin) assessed as ternary complex formation incubated for 30 mins by fluorescence polarization analysis
[13] = organism: Homo sapiens; assay: Competitive molecular glue activity at fluorescein maleimide-labeled FKBP12 C22V/E108C mutant (unknown origin)/6 His-tagged BRD4 BD2 domain (unknown origin) assessed as ternary complex formation incubated for 30 mins in presence of JQ1 by fluorescence polarization analysis

Structure (SMILES): COc1ccc(CC[C@@H](OC(=O)[C@@H]2CCCCN2S(=O)(=O)c2cc3c(c([N+](=O)[O-])c2)OCC3)c2cccc(CC(=O)O)c2)cc1OC
- Activity [2]: Dose-dependent-effect
- Activity [3]: Dose-dependent-effect
- Activity [4]: inactive

Structure (SMILES): C=C[C@@H]1CN(Cc2cn(-c3ccc(N(C)C)cc3)nn2)C(=O)[C@@H]2CCC[C@H]1N2S(=O)(=O)c1cc(Cl)cc(Cl)c1
- Kd [1]: 115 µM

Structure (SMILES): C=C[C@H]1CN(Cc2ccccn2)C(=O)[C@@H]2CCC[C@H]1N2S(=O)(=O)c1cc(-c2ccccc2)c2nc(-c3ccccc3)sc2c1
- Activity [8]: Dose-dependent-effect
- Activity [9]: Dose-dependent-effect
- Activity [10]: inactive

Structure (SMILES): C=C[C@@H]1CN(Cc2cn(-c3ccc(C(C)=O)c(OC)c3)nn2)C(=O)[C@@H]2CCC[C@H]1N2S(=O)(=O)c1cc(Cl)cc(Cl)c1
- Kd [1]: 22 µM

Structure (SMILES): C=C[C@@H]1CN(Cc2cn(-c3ccc(OC)c(OC)c3)nn2)C(=O)[C@@H]2CCC[C@H]1N2S(=O)(=O)c1cc(Cl)cc(Cl)c1
- Activity [11]: inactive
- Activity [12]: inactive
- Activity [13]: inactive
- Activity [6]: inactive
- Kd [1]: 27 µM

Second part, the compound after the results:

- Kd [1]: 144 µM
Structure (SMILES): C=C[C@@H]1CN(Cc2cn(-c3ccc(OC(C)C)cc3)nn2)C(=O)[C@@H]2CCC[C@H]1N2S(=O)(=O)c1cc(Cl)cc(Cl)c1

- Kd [1]: 83 µM
Structure (SMILES): C=C[C@@H]1CN(Cc2cn(-c3ccc(OC)c(Cl)c3)nn2)C(=O)[C@@H]2CCC[C@H]1N2S(=O)(=O)c1cc(Cl)cc(Cl)c1

- Kd [1]: 47 µM
Structure (SMILES): C=C[C@@H]1CN(Cc2cn(-c3ccc(C(C)=O)cc3)nn2)C(=O)[C@@H]2CCC[C@H]1N2S(=O)(=O)c1cc(Cl)cc(Cl)c1

- Kd [1]: > 500 µM
Structure (SMILES): C=C[C@@H]1CN(Cc2cn(-c3cc(OC)c(OC)c(OC)c3)nn2)C(=O)[C@@H]2CCC[C@H]1N2S(=O)(=O)c1cc(Cl)cc(Cl)c1

- Kd [1]: 96 µM
Structure (SMILES): C=C[C@@H]1CN(Cc2cn(-c3ccc4[nH]ncc4c3)nn2)C(=O)[C@@H]2CCC[C@H]1N2S(=O)(=O)c1cc(Cl)cc(Cl)c1

- Activity [5]: Dose-dependent-effect
- Activity [6]: inactive
- Activity [7]: Dose-dependent-effect
- Kd [1]: 394 µM
Structure (SMILES): C=C[C@@H]1CN(Cc2cn(-c3ccc(OC)cc3)nn2)C(=O)[C@@H]2CCC[C@H]1N2S(=O)(=O)c1cc(Cl)cc(Cl)c1
